Reference: patent EP0007672A1, “Isocyanoalkenes, process and useful intermediates for their preparation, pharmaceutical and fungicidal preparations containing those isocyanoalkenes and the use of the fungicidal preparations in agriculture” (GIST-BROCADES N.V., priority 1978, dated 1980)
Converted amounts (≈) assume the structure as drawn. Where two headings read alike, the source gives them in different places.

Key:
Aspergillus flavus = assay: MIC (Minimum Inhibitory Concentration); assay type: cell-based; settings: Aspergillus flavus A 2385
Aspergillus parasiticus = assay: MIC (Minimum Inhibitory Concentration); assay type: cell-based
Aspergillus versiodor = assay: MIC (Minimum Inhibitory Concentration); assay type: cell-based; settings: Aspergillus versiodor Nr. 7
Bacillus subtilis = assay: MIC (Minimum Inhibitory Concentration); assay type: cell-based; settings: ATCC6633; Bacillus subtilis ATCC 6633
Candida albicans = assay: MIC (Minimum Inhibitory Concentration); assay type: cell-based
Diplococcus pneumoniae = assay: MIC (Minimum Inhibitory Concentration); assay type: cell-based; settings: Streptococcus pneumoniae; Diplococcus pneumoniae A 2783
Fusarium = assay: MIC (Minimum Inhibitory Concentration); assay type: cell-based; settings: Fusarium A 3241
Pasteurella multocida = assay: MIC (Minimum Inhibitory Concentration); assay type: cell-based; settings: Pasteurella multocida A 723; read-out: MIC values
Penicillium islandicum = assay: MIC (Minimum Inhibitory Concentration); assay type: cell-based; settings: Talaromyces islandicus; Penicillium islandicum D 189
Penicillium italicum = assay: MIC (Minimum Inhibitory Concentration); assay type: cell-based; settings: Penicillium italicum 278-65
Penicillium patalum = assay: MIC (Minimum Inhibitory Concentration); assay type: cell-based; settings: Penicillium patalum A 2389
Penicillium rubrum = assay: MIC (Minimum Inhibitory Concentration); assay type: cell-based; settings: Talaromyces ruber; Penicillium rubrum A 2395
Penicillium veridicatum = assay: MIC (Minimum Inhibitory Concentration); assay type: cell-based; settings: Penicillium veridicatum A 2370
Proteus morganii = assay: MIC (Minimum Inhibitory Concentration); assay type: cell-based; settings: Morganella morganii; Proteus morganii 2241
Rhizoctonia solani = assay: MIC (Minimum Inhibitory Concentration); assay type: cell-based; settings: Rhizoctonia solani 200-25; read-out: MIC values
Staphylococcus aureus = assay: MIC (Minimum Inhibitory Concentration); assay type: cell-based
Trichophyton equinum = assay: MIC (Minimum Inhibitory Concentration); assay type: cell-based
[1] = test system: Trichophyton mentagrophytus; assay: MIC (Minimum Inhibitory Concentration); assay type: cell-based
Trichophyton quickeaneum = assay: MIC (Minimum Inhibitory Concentration); assay type: cell-based; settings: Trichophyton quickeaneum A 2040; read-out: MIC values
Trichophyton rubrum = assay: MIC (Minimum Inhibitory Concentration); assay type: cell-based
[2] = test system: Trichophyton schoenleinii; assay: MIC (Minimum Inhibitory Concentration); assay type: cell-based; settings: Trichophyton schoenleinii 435-63; read-out: MIC values
[3] = test system: Trichophyton soudanese joyeux; assay: MIC (Minimum Inhibitory Concentration); assay type: cell-based; settings: Trichophyton soudanese joyeux 440-63; read-out: MIC values
Trichophyton tonsurans = assay: MIC (Minimum Inhibitory Concentration); assay type: cell-based; settings: Trichophyton tonsurans 561-50; read-out: MIC values
Trichophyton verrucosum = assay: MIC (Minimum Inhibitory Concentration); assay type: cell-based
Trichophyton violoceum = assay: MIC (Minimum Inhibitory Concentration); assay type: cell-based; settings: Trichophyton violoceum 442-62; read-out: MIC values
storage stability = assay type: physicochemical
Source text: Those compounds in which Rx or Ry is a hydrogen atom should be stored generally at lower temperatures, e.g. in a refrigerator. The 1-isocyano-l-p-toluenesulphonylethene (Rx and Ry hydrogen atoms) appears to be very unstable. Notwithstanding this the compound, in the reaction medium in which it must be present, could be converted with a primary amine into the corresponding imidazole, which in turn, may be converted into its ^picrate. This proves that 1-isocyano-i-p-toluenesulphonylethene exists.

## [C-]#[N+]C(=C(C)c1ccco1)S(=O)(=O)c1ccc(C)cc1 [Example 13, 1-isocyano-2-(2-furanyl)-1-(4-toluenesulphonyl)-1-propene]
Aspergillus flavus
  MIC: 12.5 µg/mL (≈ 43.5 µM)
Aspergillus parasiticus; Aspergillus parasiticus A 2396
  MIC: 6 µg/mL (≈ 20.9 µM)
Aspergillus parasiticus; Aspergillus parasiticus A 2397
  MIC values: 6 µg/mL (≈ 20.9 µM)
Aspergillus versiodor
  MIC: > 100 µg/mL
Bacillus subtilis
  MIC: 1.5 µg/mL (≈ 5.22 µM)
Candida albicans; Candida albicans A 7, read-out: MIC values
  MIC: 0.1 µg/mL (≈ 0.348 µM)
Candida albicans; Candida albicans A 3140, read-out: MIC values
  MIC: 0.2 µg/mL (≈ 0.696 µM)
Candida albicans; Candida albicans A 3141, read-out: MIC values
  MIC: < 0.05 µg/mL
Candida albicans; Candida albicans A 3144, read-out: MIC values
  MIC: 0.2 µg/mL (≈ 0.696 µM)
Candida albicans; Candida albicans A 3145, read-out: MIC values
  MIC: < 0.05 µg/mL
Candida albicans; Candida albicans A 3165, read-out: MIC values
  MIC: 1.5 µg/mL (≈ 5.22 µM)
Candida albicans; Candida albicans A 3167, read-out: MIC values
  MIC: 0.4 µg/mL (≈ 1.39 µM)
Candida albicans; Candida albicans A 3168, read-out: MIC values
  MIC: 0.2 µg/mL (≈ 0.696 µM)
Candida albicans; Candida albicans A 3169, read-out: MIC values
  MIC: 0.2 µg/mL (≈ 0.696 µM)
Candida albicans; Candida albicans A 3171, read-out: MIC values
  MIC: < 0.05 µg/mL
Candida albicans; Candida albicans A 3190, read-out: MIC values
  MIC: < 0.05 µg/mL
Candida albicans; Candida albicans A 3191, read-out: MIC values
  MIC: < 0.05 µg/mL
Candida albicans; Candida albicans A 3194, read-out: MIC values
  MIC: < 0.05 µg/mL
Candida albicans; Candida albicans A 3196, read-out: MIC values
  MIC: < 0.05 µg/mL
Diplococcus pneumoniae
  MIC: 12.5 µg/mL (≈ 43.5 µM)
Fusarium
  MIC: 50 µg/mL (≈ 174 µM)
Pasteurella multocida
  MIC: 0.75 µg/mL (≈ 2.61 µM)
Penicillium islandicum
  MIC: 12.5 µg/mL (≈ 43.5 µM)
Penicillium italicum
  MIC: 3 µg/mL (≈ 10.4 µM)
Penicillium patalum
  MIC: 25 µg/mL (≈ 87 µM)
Penicillium rubrum
  MIC: 25 µg/mL (≈ 87 µM)
Penicillium veridicatum
  MIC: 3 µg/mL (≈ 10.4 µM)
Proteus morganii
  MIC: 12.5 µg/mL (≈ 43.5 µM)
Rhizoctonia solani
  MIC: 6 µg/mL (≈ 20.9 µM)
Staphylococcus aureus; Staphylococcus aureus A 321
  MIC: 12.5 µg/mL (≈ 43.5 µM)
Staphylococcus aureus; Staphylococcus aureus A 355
  MIC: 6 µg/mL (≈ 20.9 µM)
Staphylococcus aureus; Staphylococcus aureus A 2000
  MIC: 6 µg/mL (≈ 20.9 µM)
Trichophyton equinum; Trichophyton equinum 182-76, read-out: MIC values
  MIC: 1.5 µg/mL (≈ 5.22 µM)
Trichophyton equinum; Trichophyton equinum 856-71, read-out: MIC values
  MIC: 0.1 µg/mL (≈ 0.348 µM)
[1]; Trichophyton mentagrophytus 367-68, read-out: MIC values
  MIC: 3 µg/mL (≈ 10.4 µM)
[1]; Trichophyton mentagrophytus 421-67, read-out: MIC values
  MIC: 3 µg/mL (≈ 10.4 µM)
[1]; Trichophyton mentagrophytus A 3252, read-out: MIC values
  MIC: 3 µg/mL (≈ 10.4 µM)
[1]; Trichophyton mentagrophytus R 177, read-out: MIC values
  MIC: 3 µg/mL (≈ 10.4 µM)
[1]; Trichophyton mentagrophytus R 178, read-out: MIC values
  MIC: 12.5 µg/mL (≈ 43.5 µM)
[1]; Trichophyton mentagrophytus RRL 305, read-out: MIC values
  MIC: 3 µg/mL (≈ 10.4 µM)
Trichophyton quickeaneum
  MIC: 0.4 µg/mL (≈ 1.39 µM)
Trichophyton rubrum; Trichophyton rubrum 218-65, read-out: MIC values
  MIC: 0.8 µg/mL (≈ 2.78 µM)
Trichophyton rubrum; Trichophyton rubrum 494-62, read-out: MIC values
  MIC: 0.8 µg/mL (≈ 2.78 µM)
Trichophyton rubrum; Trichophyton rubrum A 810, read-out: MIC values
  MIC: 0.8 µg/mL (≈ 2.78 µM)
[2]
  MIC: 3 µg/mL (≈ 10.4 µM)
[3]
  MIC: 6 µg/mL (≈ 20.9 µM)
Trichophyton tonsurans
  MIC: 3 µg/mL (≈ 10.4 µM)
Trichophyton verrucosum; Trichophyton verrucosum 134-66, read-out: MIC values
  MIC: 0.8 µg/mL (≈ 2.78 µM)
Trichophyton verrucosum; Trichophyton verrucosum A 2922, read-out: MIC values
  MIC: 3 µg/mL (≈ 10.4 µM)
Trichophyton violoceum
  MIC: 3 µg/mL (≈ 10.4 µM)

## [C-]#[N+]C(=C)S(=O)(=O)c1ccc(C)cc1 [Example 8, 1-isocyano-1-(4-toluenesulphonyl)-ethene]
Storage stability
  stability: very unstable
